Read-outs that look alike come from different tables or passages of the source.
What was measured:
[1] = test system: cocklebur; assay: Test B pre-/postemergence herbicide test; type: in vivo, Xanthium strumarium; settings: for Plant response rating, Cocklebur / Plant response rating (0 to 100 scale), Cocklebur: preemergence
How it was run: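 Formulation: non-phytotoxic solvent mix with surfactant. Timing: preemergence on seed and postemergence on 2–18 cm plants, applied concurrently. Readout after 13–15 d greenhouse: visual 0–100 control rating against controls.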

[2] = test system: velvetleaf; assay: Test A pre-/postemergence herbicide test; type: in vivo, Abutilon theophrasti; settings: for pest or weed control at 125 g/ha / pest or weed control at 500 g/ha: Abutilon theophrasti, 240 h, read-out: Velvetleaf plant response rating; for pest or weed control at 125 g/ha: 125 g ai/ha
How it was run: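 Greenhouse injury scoring (0–100, complete control = 100) at approximately ten days follows simultaneous pre- and postemergence application. Soil received a directed spray after seeding; seedlings of 2–10 cm at the one- to two-leaf stage were sprayed to runoff.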

[3] = test system: smallflower umbrella sedge; assay: Test C flooded paddy test; type: in vivo, Cyperus difformis; settings: for Plant response rating, Sedge, Umbrella: 500 g ai/ha, visual rating after 12 to 14 days
[4] = test system: barnyardgrass; assay: Test B flooded paddy test; type: in vivo, Echinochloa crus-galli; settings: scale 0 to 100 (0 no effect, 100 complete control); for Barnyardgrass plant response rating: 1000 g ai/ha
How it was run: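 Scale 0–100: zero equals no visible effect, 100 complete control, judged by eye relative to controls. Timing: 13 to 15 days in greenhouse post-treatment. Growth stage at spraying: two leaves (paddy) or one to four leaves, 2–18 cm (postemergence).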

[5] = test system: goosegrass; assay: Test C pre-/postemergence herbicide test; type: in vivo, Eleusine indica
Description: (§1) Seeds of plant species selected from bermudagrass (Cynodon dactylon (L.) Pers.), Surinam grass (Urochloa decumbens (Staph) R. D. Webster, previously named Brachiaria decumbens Stapf), cocklebur (Xanthium strumarium L.), corn (Zea mays L.), large crabgrass (Digitaria sanguinalis (L.) Scop.), woolly cupgrass (Eriochloa villosa (Thunb.) Kunth), giant foxtail (Setaria faberi Herrm.), goosegrass (Eleusine indica (L.) Gaertn.), johnsongrass (Sorghum halepense (L.) Pers.), kochia (Kochia scoparia (L.) Schrad.), lambsquarters (Chenopodium album L.), morningglory (Ipomoea coccinea L.), eastern black nightshade (Solanum ptycanthum Dunal), yellow nutsedge (Cyperus esculentus L.), pigweed (Amaranthus retroflexus L.), common ragweed (Ambrosia elatior L.), soybean (Glycine max (L.) Merr.), common (oilseed) sunflower (Helianthus annuus L.) and velvetleaf (Abutilon theophrasti Medik.) were planted and treated preemergence with test chemicals formulated in a non-phytotoxic solvent mixture which included a surfactant.
(§2) At the same time, plants selected from these crop and weed species and also winter barley (Hordeum vulgare L.), blackgrass (Alopecurus myosuroides Huds.), canarygrass (Phalaris minor Retz.), chickweed (Stellaria media (L.) Vill.), downy bromegrass (Bromus tectorum L.), green foxtail (Setaria viridis (L.) Beauv.), Italian ryegrass (Lolium multiflorum Lam.), wheat (Triticum aestivum L.), wild oat (Avenafatua L.) and windgrass (Apera spica-venti (L.) Beauv.) were treated with postemergence applications of some of the test chemicals formulated in the same manner. Plants ranged in height from 2 to 18 cm (1- to 4-leaf stage) for postemergence treatments. Plant species in the flooded paddy test consisted of rice (Oryza sativa), smallflower umbrella sedge (Cyperus difformis L.), ducksalad (Heteranthera limosa (Sw.) Willd.) and barnyardgrass (Echinochloa crus-galli (L.) Beauv.) grown to the 2-leaf stage for testing. Treated plants and controls were maintained in a greenhouse for 12 to 14 days, after which time all species were compared to controls and visually evaluated. Plant response ratings, summarized in Table C, are based on a scale of 0 to 100 where 0 is no effect and 100 is complete control. A dash (-) response means no test result.

[6] = test system: common ragweed; assay: Test C pre-/postemergence herbicide test; type: in vivo, Ambrosia elatior; set-up: key to Plant response rating, Ragweed: 0 = no effect, 100 = complete control
Description: as §1, §2

[7] = test system: yellow nutsedge; assay: Test C pre-/postemergence herbicide test; type: in vivo, Cyperus esculentus; settings: preemergence; for Plant response rating (0 = no effect, 100 = complete control), Nutsedge, Yellow: 125 g ai/ha
Description: as §1, §2

[8] = test system: woolly cupgrass; assay: Test C pre-/postemergence herbicide test; type: in vivo, Eriochloa villosa
Description: as §1, §2

[9] = 125 g ai/ha, scale 0 to 100 (0 no effect, 100 complete control)
[10] = 250 g ai/ha, scale of 0 to 100, 0 is no effect, 100 is complete control
[11] = scale 0 to 100 (0 no effect, 100 complete control)
[12] = 125 g ai/ha, 0 is no effect, 100 is complete control
[13] = 125 g ai/ha, visual rating, scale 0 (no effect) to 100 (complete control), postemergence
[14] = postemergence, 500 g ai/ha, scale 0 to 100, 0 is no effect, 100 is complete control
[15] = 62 g ai/ha, preemergence, scale 0 to 100
[16] = 250 g ai/ha, scale 0-100, preemergence
[17] = Postemergence, 250 g ai/ha, scale 0 to 100, 0 no effect, 100 complete control
[18] = postemergence, 125 g ai/ha, scale 0 to 100
[19] = postemergence, 62 g ai/ha, scale 0 to 100
[20] = 500 g ai/ha, scale 0 to 100 (0 no effect, 100 complete control), visual, 12 to 14 days, preemergence

C=Cn1nc(C(C)(C)C)cc1C(=O)Nc1cccc(C(C)=O)c1 [Compound 127]
Plant response rating, Cocklebur ([1]; 500 g ai/ha, visual rating 0-100, 0 no effect, 100 complete control): 20
Cocklebur plant response rating ([1]; postemergence, 125 g ai/ha, visual rating, scale 0 (no effect) to 100 (complete control)): 10
Cocklebur plant response rating ([1]; postemergence, 500 g ai/ha, visual rating, scale 0 (no effect) to 100 (complete control)): 80
Plant response rating, Cocklebur ([1]; 125 g ai/ha, 0 to 100 scale, 0 is no effect, 100 is complete control): 10
Velvetleaf plant response rating ([2]; Postemergence, 500 g ai/ha, 0 to 100 scale, 0 no effect, 100 complete control): 0
Plant response rating, Velvetleaf ([2]; Postemergence, 2000 g ai/ha, 0 to 100 scale, 0 no effect, 100 complete control): 0
Velvetleaf plant response rating ([2]; Preemergence, 2000 g ai/ha, visual rating, 0 to 100 scale (0 no effect, 100 complete control)): 30
Velvetleaf plant response rating ([2]; preemergence, 500 g ai/ha, visual injury, 0 to 100 scale (0 no effect, 100 complete control)): 10
Sedge, Umbrella plant response rating ([3]; 62 g ai/ha, scale 0 to 100 (0 no effect, 100 complete control)): 80
Sedge, Umbrella plant response rating [3, 9]: 80
Sedge, Umbrella plant response rating [3, 10]: 80
Plant response rating, Sedge, Umbrella [3, 11]: 85
Barnyardgrass plant response rating ([4]; visual rating, 13 to 15 days): 50

CCNC(=O)c1ccc(F)c(NC(=O)c2c3c(nn2CC)C(C)(C)CC3)c1 [Compound 353]
Plant response rating (0 to 100 scale), Cocklebur [1, 12]: 0
Cocklebur plant response rating [1, 13]: 10
Plant response rating, Cocklebur ([1]; 500 g ai/ha, visual rating, 0 = no effect, 100 = complete control): 20
Cocklebur plant response rating [1, 14]: 20
Sedge, Umbrella plant response rating ([3]; 62 g ai/ha, scale 0 to 100): 0
Sedge, Umbrella plant response rating [3, 9]: 0
Sedge, Umbrella plant response rating [3, 10]: 50
Plant response rating, Sedge, Umbrella [3, 11]: 50
Barnyardgrass plant response rating [4]: 70

CCOC(=O)c1cccc(NC(=O)c2nn(C(C)(C)CC)nc2CC)c1 [Compound 375]
Plant response rating (0 to 100 scale), Cocklebur [1, 12]: 0
Cocklebur plant response rating [1, 13]: 30
Cocklebur plant response rating [1, 14]: 60
Plant response rating, Goosegrass [5, 15]: 60
Plant response rating (0 = no effect, 100 = complete control), Goosegrass ([5]; 125 g ai/ha, preemergence): 100
Plant response rating, Goosegrass [5, 16]: 100
Plant response rating, Goosegrass [5, 17]: 50
Plant response rating, Goosegrass [5, 18]: 15
Plant response rating, Goosegrass [5, 19]: 15
Plant response rating, Ragweed [6, 15]: 0
Plant response rating (0 = no effect, 100 = complete control), Ragweed ([6]; 125 g ai/ha, preemergence): 5
Plant response rating, Ragweed [6, 16]: 10
Plant response rating, Ragweed [6, 18]: 10
Plant response rating, Ragweed [6, 19]: 5
Barnyardgrass plant response rating [4]: 40
Plant response rating, Nutsedge, Yellow ([7]; 31 g ai/ha, scale 0 to 100, last section of Table C): 0
Plant response rating, Nutsedge, Yellow ([7]; 62 g ai/ha, scale 0 to 100): 0
Plant response rating (0 = no effect, 100 = complete control), Nutsedge, Yellow [7]: 0
Plant response rating, Nutsedge, Yellow ([7]; 250 g ai/ha, scale 0-100): 0
Plant response rating, Cupgrass, Woolly [8, 15]: 60
Plant response rating (0 = no effect, 100 = complete control), Cupgrass, Woolly ([8]; 125 g ai/ha, preemergence): 70
Plant response rating, Cupgrass, Woolly [8, 16]: 70
Plant response rating, Cupgrass, Woolly [8, 17]: 45
Plant response rating, Cupgrass, Woolly [8, 18]: 30
Plant response rating, Cupgrass, Woolly [8, 19]: 30

CCc1nn(C(C)(C)C)nc1C(=O)Nc1cccc(C(=O)N(C)CC)c1 [Compound 384]
Plant response rating (0 to 100 scale), Cocklebur [1, 12]: 0
Cocklebur plant response rating [1, 13]: 30
Cocklebur plant response rating [1, 14]: 40
Plant response rating, Goosegrass [5, 15]: 85
Plant response rating (0 = no effect, 100 = complete control), Goosegrass ([5]; 125 g ai/ha, preemergence): 95
Plant response rating, Goosegrass [5, 16]: 100
Sedge, Umbrella plant response rating ([3]; 62 g ai/ha, scale 0 to 100): 80
Sedge, Umbrella plant response rating [3, 9]: 80
Sedge, Umbrella plant response rating [3, 10]: 80
Plant response rating, Sedge, Umbrella [3, 11]: 80
Plant response rating, Ragweed [6, 15]: 100
Plant response rating (0 = no effect, 100 = complete control), Ragweed ([6]; 125 g ai/ha, preemergence): 100
Plant response rating, Ragweed [6, 16]: 100
Barnyardgrass plant response rating [4]: 90
Plant response rating, Cupgrass, Woolly [8, 15]: 55
Plant response rating (0 = no effect, 100 = complete control), Cupgrass, Woolly ([8]; 125 g ai/ha, preemergence): 75
Plant response rating, Cupgrass, Woolly [8, 16]: 95

C=CCNC(=O)c1cccc(NC(=O)c2nn(C(C)(C)C)nc2CC)c1 [Compound 414]
Plant response rating (0 to 100 scale), Cocklebur [1, 12]: 20
Cocklebur plant response rating ([1]; Postemergence, 500 g ai/ha, scale 0 (no effect) to 100 (complete control)): 70
Cocklebur plant response rating [1, 18]: 60
Plant response rating, Goosegrass [5, 15]: 95
Plant response rating (0 = no effect, 100 = complete control), Goosegrass ([5]; 125 g ai/ha, preemergence): 100
Plant response rating, Goosegrass [5, 16]: 100
Plant response rating, Goosegrass [5, 20]: 100
Plant response rating, Ragweed [6, 15]: 15
Plant response rating (0 = no effect, 100 = complete control), Ragweed ([6]; 125 g ai/ha, preemergence): 45
Plant response rating, Ragweed [6, 20]: 65
Barnyardgrass plant response rating [4]: 80
Plant response rating, Nutsedge, Yellow ([7]; 62 g ai/ha, scale 0 to 100): 0
Plant response rating (0 = no effect, 100 = complete control), Nutsedge, Yellow [7]: 0
Plant response rating, Nutsedge, Yellow ([7]; 500 g ai/ha, scale 0 to 100 (0 no effect, 100 complete control), visual, 12 to 14 days): 20
Plant response rating, Cupgrass, Woolly [8, 15]: 0
Plant response rating (0 = no effect, 100 = complete control), Cupgrass, Woolly ([8]; 125 g ai/ha, preemergence): 80
Plant response rating, Cupgrass, Woolly [8, 16]: 95
Plant response rating, Cupgrass, Woolly [8, 20]: 100

CCNC(=O)c1cccc(NC(=O)c2nc(C(C)(C)C)nn2CC)c1 [Compound 446, 3-(1,1-dimethylethyl)-1-ethyl-N-[3-[(ethylamino)carbonyl]phenyl]-1H-1,2,4-triazole-5-carboxamide]
pest or weed control at 125 g/ha ([2]; post-emergence, Postemergence, 0 to 100 scale, 0 no effect, 100 complete control): 30%
pest or weed control at 500 g/ha ([2]; post-emergence, Postemergence, 500 g ai/ha, 0 to 100 scale, 0 no effect, 100 complete control): 60%
pest or weed control at 125 g/ha ([2]; pre-emergence, preemergence, visual injury, 0 to 100 scale (0 no effect, 100 complete control)): 10%
pest or weed control at 500 g/ha ([2]; pre-emergence, preemergence, 500 g ai/ha, visual injury, 0 to 100 scale (0 no effect, 100 complete control)): 20%
pest or weed control at 125 g/ha ([4]; Echinochloa crus-galli, 336 h, 125 g ai/ha, read-out: Barnyardgrass plant response rating): 70%
pest or weed control at 500 g/ha ([4]; Echinochloa crus-galli, 336 h, 500 g ai/ha, read-out: Barnyardgrass plant response rating): 90%

From patent US20060069132A1, “Azolecarboxamide herbicides” (priority 2004, published 2006)
